Source: ChEMBL document CHEMBL1201862, “PubChem BioAssay data set” (2004)
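Dose response: 5 concentrations. Exposure: 48 h. Format: 96-well plates. Endpoint: linear interpolation; highest concentration if not reached. GI50 marks 50% less growth.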 Active and inactive are the calls of the source. No stated cut-off is given here; in the data, active = GI50 up to about 1.1 µM and inactive = higher.

Key:
Experiment in all cases: NCI-60 cell line screen, 48 h
RPMI-8226 = system: RPMI-8226
DLD-1 = system: DLD-1
HOP-18 = system: HOP-18
786-0 = system: 786-0
UO-31 = system: UO-31
IGROV-1 = system: IGROV-1
MCF7 = system: MCF7
OVCAR-4 = system: OVCAR-4
DU-145 = system: DU-145
LXFL 529 = system: LXFL 529
U-251 = system: U-251
COLO 205 = system: COLO 205
SN12C = system: SN12C
MDA-N = system: MDA-N
NCI-H23 = system: NCI-H23
SK-OV-3 = system: SK-OV-3
OVCAR-5 = system: OVCAR-5
HOP-62 = system: HOP-62
UACC-62 = system: UACC-62
T47D = system: T47D
SR = system: SR
SK-MEL-28 = system: SK-MEL-28
SK-MEL-5 = system: SK-MEL-5
NCI-H226 = system: NCI-H226
MDA-MB-231 = system: MDA-MB-231
XF498 = system: XF498
SNB-78 = system: SNB-78
KM12 = system: KM12
K562 = system: K562
PC-3 = system: PC-3
MDA-MB-435 = system: MDA-MB-435
SNB-19 = system: SNB-19
TK-10 = system: TK-10
EKVX = system: EKVX
HOP-92 = system: HOP-92
KM-20L2 = system: KM-20L2
SF-539 = system: SF-539
RXF 393 = system: RXF 393
DMS-273 = system: DMS-273
Malme-3M = system: Malme-3M
SK-MEL-2 = system: SK-MEL-2
A549 = system: A549
BT-549 = system: BT-549
SW-620 = system: SW-620
HCC 2998 = system: HCC 2998
ACHN = system: ACHN
HL-60 = system: HL-60
NCI-H460 = system: NCI-H460
SNB-75 = system: SNB-75
HCT-116 = system: HCT-116
RXF 631 = system: RXF 631
A498 = system: A498
M14 = system: M14
SF-295 = system: SF-295
M19-MEL = system: M19-MEL
CCRF-CEM = system: CCRF-CEM
HT-29 = system: HT-29
SF-268 = system: SF-268
NCI-H522 = system: NCI-H522
OVCAR-3 = system: OVCAR-3
OVCAR-8 = system: OVCAR-8
CAKI-1 = system: CAKI-1
LOX IMVI = system: LOX IMVI
MOLT-4 = system: MOLT-4
UACC-257 = system: UACC-257
DMS-114 = system: DMS-114

SMILES: CCCC/C=C1\CCC(CN2CCOCC2)C1=O (stereo unspecified)
- GI50 (RPMI-8226): 0.15 µM (active)
- GI50 (DLD-1): 1.75 µM (inactive)
- GI50 (HOP-18): 0.653 µM (active)
- GI50 (786-0): 1.8 µM (inactive)
- GI50 (UO-31): 4.22 µM (inactive)
- GI50 (IGROV-1): 14.3 µM (inactive)
- GI50 (MCF7): 1.53 µM (inactive)
- GI50 (OVCAR-4): 11.7 µM (inactive)
- GI50 (DU-145): 16.9 µM (inactive)
- GI50 (LXFL 529): 1.43 µM (inactive)
- GI50 (U-251): 3.53 µM (inactive)
- GI50 (COLO 205): 2.97 µM (inactive)
- GI50 (SN12C): 4.57 µM (inactive)
- GI50 (MDA-N): 10.7 µM (inactive)
- GI50 (NCI-H23): 5.7 µM (inactive)
- GI50 (SK-OV-3): 17.1 µM (inactive)
- GI50 (OVCAR-5): 17.4 µM (inactive)
- GI50 (HOP-62): 15.7 µM (inactive)
- GI50 (UACC-62): 6.4 µM (inactive)
- GI50 (T47D): 5.19 µM (inactive)
- GI50 (SR): 1.73 µM (inactive)
- GI50 (SK-MEL-28): 3.24 µM (inactive)
- GI50 (SK-MEL-5): 12 µM (inactive)
- GI50 (NCI-H226): 8.63 µM (inactive)
- GI50 (MDA-MB-231): 3.78 µM (inactive)
- GI50 (XF498): 1.64 µM (inactive)
- GI50 (SNB-78): 8.39 µM (inactive)
- GI50 (KM12): 1.8 µM (inactive)
- GI50 (K562): 1.19 µM (inactive)
- GI50 (PC-3): 13.2 µM (inactive)
- GI50 (MDA-MB-435): 10.7 µM (inactive)
- GI50 (SNB-19): 15.8 µM (inactive)
- GI50 (TK-10): 9.31 µM (inactive)
- GI50 (EKVX): 11.2 µM (inactive)
- GI50 (HOP-92): 1.83 µM (inactive)
- GI50 (KM-20L2): 4.89 µM (inactive)
- GI50 (SF-539): 7.73 µM (inactive)
- GI50 (RXF 393): 1.51 µM (inactive)
- GI50 (DMS-273): 3.74 µM (inactive)
- GI50 (Malme-3M): 2.19 µM (inactive)
- GI50 (SK-MEL-2): 10.1 µM (inactive)
- GI50 (A549): 20.4 µM (inactive)
- GI50 (BT-549): 3.56 µM (inactive)
- GI50 (SW-620): 2.1 µM (inactive)
- GI50 (HCC 2998): 9.08 µM (inactive)
- GI50 (ACHN): 3.59 µM (inactive)
- GI50 (HL-60): 1.57 µM (inactive)
- GI50 (NCI-H460): 18.2 µM (inactive)
- GI50 (SNB-75): 2.27 µM (inactive)
- GI50 (HCT-116): 2.04 µM (inactive)
- GI50 (RXF 631): 14.9 µM (inactive)
- GI50 (A498): 14.1 µM (inactive)
- GI50 (M14): 3.32 µM (inactive)
- GI50 (SF-295): 16.3 µM (inactive)
- GI50 (M19-MEL): 4.02 µM (inactive)
- GI50 (CCRF-CEM): 0.724 µM (active)
- GI50 (HT-29): 3.48 µM (inactive)
- GI50 (SF-268): 11.5 µM (inactive)
- GI50 (NCI-H522): 0.809 µM (active)
- GI50 (OVCAR-3): 5.32 µM (inactive)
- GI50 (OVCAR-8): 10 µM (inactive)
- GI50 (CAKI-1): 1.92 µM (inactive)
- GI50 (LOX IMVI): 1.24 µM (inactive)
- GI50 (MOLT-4): 2.02 µM (inactive)
- GI50 (UACC-257): 5.28 µM (inactive)
- GI50 (DMS-114): 4.86 µM (inactive)
